Assays:
motor neurons = assay: Induction of motor neuron cell death by glutamate toxicity (domoic acid); format: cell-based, rat; details: domoic acid at 10^-5 M, after 24 hours
Experimental: Domoic acid at 10^−5M leads to loss of more than 50% of motor neurons after 24 hours (see is example), with even more dramatic effects after longer incubations.
(§1) Rat motor neurons were isolated and purified as described in example 1 and cultured for 3 days in Neurobasal medium without neurotrophic factors (i.e. trophic factor withdrawal) in 4-well plates in the presence or absence of the test molecule. The neurotrophic factor BDNF is used as a positive control for all experiments. […] Motor neurons were grown for 3 days in vitro, then domoic acid at various concentrations was added and the number of surviving motor neurons was counted after 26 hours.

Rat motor neurons = assay: Motor neuron survival on trophic factor withdrawal; format: cell-based; details: cultured 3 days in Neurobasal medium without neurotrophic factors, 4-well plates; FIG. 1
Experimental: Spinal cords are dissected from day E14.5 sprague Dawley rat embryos (Camu et al., (1993) In: “Immunoselection Strategies for Neural Cell Culture”, Neuroprotocols: A companion to Methods in Neurosciences 2, 191-199). The dorsal part of the spinal cord is cut away, and the meninges removed. Each cord is cut into pieces using a scalpel and placed into 1 ml modified F10 medium (Ca2+, Mg2+-free, no glutamine or phenol red), with 0.025% trypsin, at 37° C. for 10 minutes. The fragments are transferred to 1 ml L15 containing 0.4% BSA and 0.1 mg/ml Dnase, and triturated using a blue (1 ml) tip. Cells are then spun through a BSA (4% w/v) cushion for 5 minutes at 480 g. The small cells are removed using a metrizamide (Serva) density gradient: 6.5% (w/v) metrizamide is placed under the cell suspension and centrifuged for 15 minutes at 860 g. The large motor neurons stay at the interface between the medium and the metrizamide, while the small cells (including non-neuronal cells) are pelleted. […]
as §1, with “molecule.” for “molecule. The neurotrophic factor BDNF is used as a positive control for all experiments.”, “hours. […]” for “hours.”

isolated neurons = assay: Low-density isolated neuron cultures (384-well plate) under growth factor privation, individual cell count; format: cell-based; details: growth factor privation to induce apoptosis, exclusion threshold below 300 μm^2, untreated well 18 neurons, FIG. 3A
Description: FIG. 3 represents two 9 mm^2-wells of a microtitration plate (384 wells) containing low-density cultures of isolated neurons according to this invention. The cultures were subjected to growth factor privation to induce apoptosis, and treated or not with BDNF. […] The exclusion threshold is below 300 μm^2.

Molecule	survival of motor neurons on trophic factor withdrawal (Rat motor neurons)	also measured
C/C(=C/C=C/[C@@H](C)C(=O)O)[C@H]1CN[C@H](C(=O)O)[C@H]1CC(=O)O [Domoic acid]	–	loss of motor neurons (motor neurons): more than 50%
CCCC(CCC)C(=O)[O-].[Na+] [sodium valproate]	enhances survival of motor neurons	–
(4-carboxyphenyloxyamino) butanoic acid	no effect on motor neuron survival	–
BDNF: neurotrophic factor used as a positive control (protein, UniProt P23560 19-247, looked up) Neurotrophic factor BDNF …: APMKEANIRGQGGLAYPGVRTHGTLESVNGPKAGSRGLTSLADTFEHVIEELLDEDQKVRPNEENNKDADLYTSRVMLSSQVPLEPPLLFLLEEYKNYLDAANMSMRVRRHSDPARRGELSVCDSISEWVTAADKKTAVDMSGGTVTVLEKVPVSKGQLKQYFYETKCNPMGYTKEGCRGIDKRHWNSQCRTTQSYVRALTMDSKKRIGWRFIRIDTSCVCTLTIKRGR	–	neurons present per 9 mm^2 well (isolated neurons): 73 neurons

Source: US6949354B2, “Methods for screening compounds active on neurons” (Trophos, priority 1999, dated 2005)
